Reference: ChEMBL document CHEMBL1201862, “PubChem BioAssay data set” (2004)
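Dose response: 5 concentrations. Exposure: 48 h. Format: 96-well plates. Endpoint: linear interpolation; highest concentration if not reached. The concentration for 50% growth inhibition is given as GI50.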 Activity calls are given as the source filed them. Rule as the data show it: active = GI50 up to about 1.1 µM and inactive = higher.

How the values were obtained:
Test in all cases: NCI anticancer screen, dose series, 48 h
RPMI-8226 = system: RPMI-8226
SF-539 = system: SF-539
UO-31 = system: UO-31
OVCAR-4 = system: OVCAR-4
NCI-H226 = system: NCI-H226
M14 = system: M14
COLO 205 = system: COLO 205
SF-295 = system: SF-295
HCT-15 = system: HCT-15
IGROV-1 = system: IGROV-1
HCC 2998 = system: HCC 2998
ACHN = system: ACHN
NCI-H460 = system: NCI-H460
UACC-257 = system: UACC-257
U-251 = system: U-251
CCRF-CEM = system: CCRF-CEM
786-0 = system: 786-0
KM12 = system: KM12
TK-10 = system: TK-10
OVCAR-5 = system: OVCAR-5
A498 = system: A498
UACC-62 = system: UACC-62
SW-620 = system: SW-620
BT-549 = system: BT-549
MOLT-4 = system: MOLT-4
T47D = system: T47D
PC-3 = system: PC-3
MDA-N = system: MDA-N
MDA-MB-231 = system: MDA-MB-231
SN12C = system: SN12C
NCI/ADR-RES = system: NCI/ADR-RES
NCI-H23 = system: NCI-H23
LOX IMVI = system: LOX IMVI
K562 = system: K562
DU-145 = system: DU-145
MDA-MB-435 = system: MDA-MB-435
SF-268 = system: SF-268
MCF7 = system: MCF7
OVCAR-3 = system: OVCAR-3
Hs-578T = system: Hs-578T
Malme-3M = system: Malme-3M
SK-MEL-2 = system: SK-MEL-2
NCI-H522 = system: NCI-H522
HCT-116 = system: HCT-116
HOP-62 = system: HOP-62
EKVX = system: EKVX
CAKI-1 = system: CAKI-1
SK-MEL-5 = system: SK-MEL-5
SNB-75 = system: SNB-75
SK-MEL-28 = system: SK-MEL-28
OVCAR-8 = system: OVCAR-8
HL-60 = system: HL-60
HT-29 = system: HT-29
A549 = system: A549
SK-OV-3 = system: SK-OV-3
SR = system: SR
HOP-92 = system: HOP-92
SNB-19 = system: SNB-19
RXF 393 = system: RXF 393

SMILES: COc1cc2c(cc1OCCCC(=O)Nc1cc(C(=O)Nc3cc(C(=O)Nc4cc(C(=O)NCCCN(C)C)n(C)c4)n(C)c3)n(C)c1)N=C[C@@H]1CCCN1C2=O
- GI50 (RPMI-8226): 1.67 µM (inactive)
- GI50 (SF-539): 3.42 µM (inactive)
- GI50 (UO-31): 1.66 µM (inactive)
- GI50 (OVCAR-4): 1.95 µM (inactive)
- GI50 (NCI-H226): 5.56 µM (inactive)
- GI50 (M14): 1.66 µM (inactive)
- GI50 (COLO 205): 1.61 µM (inactive)
- GI50 (SF-295): 12.2 µM (inactive)
- GI50 (HCT-15): 1.82 µM
- GI50 (IGROV-1): 3.1 µM (inactive)
- GI50 (HCC 2998): 14.2 µM (inactive)
- GI50 (ACHN): 1.61 µM (inactive)
- GI50 (NCI-H460): 3.21 µM (inactive)
- GI50 (UACC-257): 1.97 µM (inactive)
- GI50 (U-251): 1.6 µM (inactive)
- GI50 (CCRF-CEM): 0.348 µM (active)
- GI50 (786-0): 1.12 µM (active)
- GI50 (KM12): 16.3 µM (inactive)
- GI50 (TK-10): 1.87 µM (inactive)
- GI50 (OVCAR-5): 3.16 µM (inactive)
- GI50 (A498): 13.2 µM (inactive)
- GI50 (UACC-62): 2.19 µM (inactive)
- GI50 (SW-620): 1.69 µM (inactive)
- GI50 (BT-549): 1.96 µM (inactive)
- GI50 (MOLT-4): 3.2 µM (inactive)
- GI50 (T47D): 1.79 µM (inactive)
- GI50 (PC-3): 2.28 µM (inactive)
- GI50 (MDA-N): 1.84 µM (inactive)
- GI50 (MDA-MB-231): 2.3 µM (inactive)
- GI50 (SN12C): 1.2 µM (inactive)
- GI50 (NCI/ADR-RES): 2.22 µM (inactive)
- GI50 (NCI-H23): 1.77 µM (inactive)
- GI50 (LOX IMVI): 0.933 µM (active)
- GI50 (K562): 2.19 µM (inactive)
- GI50 (DU-145): 3.47 µM (inactive)
- GI50 (MDA-MB-435): 1.79 µM (inactive)
- GI50 (SF-268): 1.63 µM (inactive)
- GI50 (MCF7): 2.16 µM (inactive)
- GI50 (OVCAR-3): 2.02 µM (inactive)
- GI50 (Hs-578T): 2.94 µM (inactive)
- GI50 (Malme-3M): 1.82 µM (inactive)
- GI50 (SK-MEL-2): 2.53 µM (inactive)
- GI50 (NCI-H522): 0.224 µM (active)
- GI50 (HCT-116): 1.69 µM (inactive)
- GI50 (HOP-62): 3.56 µM (inactive)
- GI50 (EKVX): 2.89 µM (inactive)
- GI50 (CAKI-1): 0.587 µM (active)
- GI50 (SK-MEL-5): 2.24 µM (inactive)
- GI50 (SNB-75): 3.3 µM (inactive)
- GI50 (SK-MEL-28): 2.15 µM (inactive)
- GI50 (OVCAR-8): 1.79 µM (inactive)
- GI50 (HL-60): 1.16 µM (inactive)
- GI50 (HT-29): 1.91 µM (inactive)
- GI50 (A549): 11.2 µM (inactive)
- GI50 (SK-OV-3): 14.6 µM (inactive)
- GI50 (SR): 0.367 µM (active)
- GI50 (HOP-92): 1.88 µM (inactive)
- GI50 (SNB-19): 6.32 µM (inactive)
- GI50 (RXF 393): 1.66 µM (inactive)

SMILES: COc1ccc(C(=O)c2ccc(-n3cc(/C=C/[N+](=O)[O-])c4ccccc43)cc2)cc1
- GI50 (RPMI-8226): 3.08 µM (inactive)
- GI50 (SF-539): 14.7 µM (inactive)
- GI50 (UO-31): 19.5 µM (inactive)
- GI50 (OVCAR-4): 29.4 µM (inactive)
- GI50 (NCI-H226): > 51.5 µM (inactive)
- GI50 (M14): 29 µM (inactive)
- GI50 (COLO 205): 32.3 µM (inactive)
- GI50 (SF-295): 47.9 µM (inactive)
- GI50 (HCT-15): 7 µM
- GI50 (IGROV-1): 10.8 µM (inactive)
- GI50 (HCC 2998): 20.9 µM (inactive)
- GI50 (ACHN): 20.1 µM (inactive)
- GI50 (NCI-H460): 35.9 µM (inactive)
- GI50 (UACC-257): 10.2 µM (inactive)
- GI50 (U-251): 11.3 µM (inactive)
- GI50 (CCRF-CEM): 2.58 µM (inactive)
- GI50 (786-0): 3.52 µM (inactive)
- GI50 (KM12): 20.7 µM (inactive)
- GI50 (TK-10): 6.3 µM (inactive)
- GI50 (OVCAR-5): > 76.4 µM (inactive)
- GI50 (A498): 22.4 µM (inactive)
- GI50 (UACC-62): 14.4 µM (inactive)
- GI50 (SW-620): 3.69 µM (inactive)
- GI50 (BT-549): 15.5 µM (inactive)
- GI50 (MOLT-4): 4.81 µM (inactive)
- GI50 (T47D): 2.07 µM (inactive)
- GI50 (PC-3): 18.8 µM (inactive)
- GI50 (MDA-N): 22.8 µM (inactive)
- GI50 (MDA-MB-231): 19.3 µM (inactive)
- GI50 (SN12C): 16.8 µM (inactive)
- GI50 (NCI/ADR-RES): 24.3 µM (inactive)
- GI50 (NCI-H23): 20.1 µM (inactive)
- GI50 (LOX IMVI): 6.55 µM (inactive)
- GI50 (K562): 6.53 µM (inactive)
- GI50 (DU-145): 21.5 µM (inactive)
- GI50 (MDA-MB-435): 16.2 µM (inactive)
- GI50 (SF-268): 18 µM (inactive)
- GI50 (MCF7): 9.08 µM (inactive)
- GI50 (OVCAR-3): 13.6 µM (inactive)
- GI50 (Hs-578T): 7.57 µM (inactive)
- GI50 (Malme-3M): 20.2 µM (inactive)
- GI50 (SK-MEL-2): 23.1 µM (inactive)
- GI50 (NCI-H522): 15.4 µM (inactive)
- GI50 (HCT-116): 10.6 µM (inactive)
- GI50 (HOP-62): 16.1 µM (inactive)
- GI50 (EKVX): 23.6 µM (inactive)
- GI50 (CAKI-1): 19.1 µM (inactive)
- GI50 (SK-MEL-5): 21.6 µM (inactive)
- GI50 (SNB-75): 91 µM (inactive)
- GI50 (SK-MEL-28): 28.1 µM (inactive)
- GI50 (OVCAR-8): 20.3 µM (inactive)
- GI50 (HL-60): 13.7 µM (inactive)
- GI50 (HT-29): 23.9 µM (inactive)
- GI50 (A549): 80.4 µM (inactive)
- GI50 (SK-OV-3): 23.6 µM (inactive)
- GI50 (SR): 8.81 µM (inactive)
- GI50 (HOP-92): 17.9 µM (inactive)
- GI50 (SNB-19): 30.2 µM (inactive)
- GI50 (RXF 393): 5.45 µM (inactive)

SMILES: Cc1ccc2c(=O)c3c(O)c4c(cc3n(C)c2c1)OC(C)(C)C=C4
- GI50 (RPMI-8226): > 10 µM (inactive)
- GI50 (SF-539): > 10 µM (inactive)
- GI50 (OVCAR-4): > 10 µM (inactive)
- GI50 (NCI-H226): > 10 µM (inactive)
- GI50 (M14): > 10 µM (inactive)
- GI50 (COLO 205): > 10 µM (inactive)
- GI50 (SF-295): > 10 µM (inactive)
- GI50 (HCT-15): > 10 µM
- GI50 (IGROV-1): > 10 µM (inactive)
- GI50 (HCC 2998): > 10 µM (inactive)
- GI50 (ACHN): > 10 µM (inactive)
- GI50 (NCI-H460): > 10 µM (inactive)
- GI50 (UACC-257): > 10 µM (inactive)
- GI50 (U-251): > 10 µM (inactive)
- GI50 (CCRF-CEM): > 10 µM (inactive)
- GI50 (786-0): > 10 µM (inactive)
- GI50 (KM12): > 10 µM (inactive)
- GI50 (TK-10): > 10 µM (inactive)
- GI50 (OVCAR-5): > 10 µM (inactive)
- GI50 (A498): > 10 µM (inactive)
- GI50 (UACC-62): > 10 µM (inactive)
- GI50 (SW-620): > 10 µM (inactive)
- GI50 (BT-549): > 10 µM (inactive)
- GI50 (MOLT-4): > 10 µM (inactive)
- GI50 (T47D): > 10 µM (inactive)
- GI50 (PC-3): > 10 µM (inactive)
- GI50 (MDA-N): > 10 µM (inactive)
- GI50 (MDA-MB-231): > 10 µM (inactive)
- GI50 (SN12C): > 10 µM (inactive)
- GI50 (NCI/ADR-RES): > 10 µM (inactive)
- GI50 (NCI-H23): > 10 µM (inactive)
- GI50 (LOX IMVI): > 10 µM (inactive)
- GI50 (K562): > 10 µM (inactive)
- GI50 (DU-145): > 10 µM (inactive)
- GI50 (MDA-MB-435): > 10 µM (inactive)
- GI50 (SF-268): > 10 µM (inactive)
- GI50 (MCF7): > 10 µM (inactive)
- GI50 (OVCAR-3): > 10 µM (inactive)
- GI50 (Hs-578T): > 10 µM (inactive)
- GI50 (Malme-3M): > 10 µM (inactive)
- GI50 (SK-MEL-2): > 10 µM (inactive)
- GI50 (NCI-H522): > 10 µM (inactive)
- GI50 (HCT-116): > 10 µM (inactive)
- GI50 (HOP-62): > 10 µM (inactive)
- GI50 (EKVX): > 10 µM (inactive)
- GI50 (CAKI-1): > 10 µM (inactive)
- GI50 (SK-MEL-5): > 10 µM (inactive)
- GI50 (SNB-75): > 10 µM (inactive)
- GI50 (SK-MEL-28): > 10 µM (inactive)
- GI50 (OVCAR-8): > 10 µM (inactive)
- GI50 (HL-60): > 10 µM (inactive)
- GI50 (HT-29): > 10 µM (inactive)
- GI50 (A549): > 10 µM (inactive)
- GI50 (SK-OV-3): > 10 µM (inactive)
- GI50 (SR): > 10 µM (inactive)
- GI50 (HOP-92): > 10 µM (inactive)
- GI50 (SNB-19): > 10 µM (inactive)
- GI50 (RXF 393): > 10 µM (inactive)
